Measured values taken from ChEMBL document CHEMBL5665440, “ASAP - In vitro liver microsomal stability” (2024).
“And” between values parts separate entries of the source, which are not always exact repeats. Identical values can stand only once.

Assays:
[1] = (§1) Human liver microsomal stability of compound in microsomal protein, PBS buffer pH 7.4, NADPH, glucose-6-phosphate and glucose-6-phosphate dehydrogenase media. Aliquotes were taken at 5 time points and after stopping the reaction, supernatants were analyzed using HPLC coupled with a tandem mass spectrometer. The elimination constant, half-life, and intrinsic clearance are determined as results using linear regression analysis.; format: ADME, microsomes, Microsome; conditions: for half-life / microsomal CLint: liver microsomes; for Remaining / Remaining (without cofactor) / CLint / T1/2: microsomes
[2] = as §1, with “Mouse” for “Human”; format: ADME, microsomes, Microsome; conditions: for half-life / microsomal CLint: liver microsomes; for Remaining / Remaining (without cofactor) / CLint / T1/2: microsomes
Throughout, for Remaining (without cofactor): time not given here.
Throughout, for Remaining: time not given here.

Row | half-life [1] [min] | microsomal CLint [1] [µL/min/mg] | Remaining [1] | Remaining (without cofactor) [1] | half-life [2] [min] | microsomal CLint [2] [µL/min/mg] | Remaining [2] | Remaining (without cofactor) [2] | CLint [1] [µL/min/mg] | T1/2 [1] | CLint [2] [µL/min/mg] | T1/2 [2] [min] | SMILES
1 | > 173 | < 10 | 90.707% | 85.739% | > 173 | < 10 | 102.559% | 103.618% | – | – | – | – | O=C1Cc2c(cccc2C(=O)Nc2ccc3c(c2)CNC3)N1
2 | 131 | 12.8 | 80.427% | 94.891% | 38.1 | 43.8 | 49.173% | 86.086% | – | – | – | – | O=C(Nc1ccc2c(c1)CNC2)c1cc(Br)cc2[nH]c(-c3ccccc3)nc12
3 | > 173 | < 10 | 86.703% | 98.509% | 9.25 | 180 | 5.066% | 103.462% | – | – | – | – | O=C(Nc1ccc2c(c1)CNC2)c1cc(F)cc2[nH]ncc12
4 | 28.9 | 57.7 | 39.342% | 94.838% | – | – | – | – | – | – | – | – | Cc1c(C(=O)Nc2cc([C@H]3CCOC3)ccn2)cc(C2CC2)n1C
5 | > 173 | < 10 | 107.799% | 101.944% | 68.2 | 24.5 | 67.731% | 99.51% | – | – | – | – | O=C(Nc1ccc2c(c1)CNC2)c1cc(Cl)cc2ccncc12
6 | 10 | 167 | 6% | 98% | 9.2 | 181 | 5% | 96% | – | – | – | – | O=C(/C=C/c1ccccc1)C(=O)N1CCN(CCc2ccccc2)CC1
7 | 29.8 | 56 | 40.588% | 99.499% | 186 | 7.44 | 87.681% | 94.521% | – | – | – | – | CCCC[C@@H](NC(=O)OC(C)(C)C)C(=O)N[C@@H](C(=O)NCc1ccc(CN)cc1)c1ccc(OCc2ccccc2)cc1
8 | 47.4 | 35.2 | 55.679% and 55.059% | 98.537% and 92.131% | 3.06 | 545 | 0.198% and 0.909% | 96.471% and 97.807% | 36.323 | 45.983 min | 553.458 | 3.018 | O=C(Nc1ccc2c(c1)CNC2)c1cc(F)cc(-c2cn[nH]c2)c1
9 | > 173 | < 10 | 105.314% | 104.393% | 31 | 54 | 41.728% | 98.046% | – | – | – | – | O=C(Nc1ccc2c(c1)CNC2)c1cc(Cl)cc2cn[nH]c12
10 | > 173 | < 10 | 87.652% | 96.46% | 6.88 | 243 | 1.932% | 102.129% | – | – | – | – | O=C(Nc1ccc2c(c1)CNC2)c1cc(Cl)cc2[nH]ncc12
11 | > 173 | < 10 | 91.331% | 107.659% | > 173 | < 10 | 95.033% | 94.186% | – | – | – | – | CNC(=O)[C@H](Nc1ccc2c(c1)CNC2)c1cc(Cl)cc2[nH]c(-c3ccccc3)nc12
12 | 162 | 10.3 | 84.178% | 84.336% | – | – | – | – | – | – | – | – | N#C[C@H](Nc1ccc2c(c1)CNC2)c1cc(Cl)cc2[nH]ncc12
13 | 149 | 11 | 87% | 100% | 1800 | 1 | 103% | 106% | – | – | – | – | NCc1cccc(NC(=O)[C@@H](NC(=O)OCc2ccccc2)c2ccc(OCc3ccccc3)cc2)c1
14 | 135 | 12.4 | 79.862% | 98.099% | > 173 | < 10 | 98.216% | 98.077% | – | – | – | – | NCc1cccc(NC(=O)C[C@H](NC(=O)OCc2ccccc2)c2ccc(OCc3ccccc3)c(Br)c2)c1
15 | – | – | – | – | 4.3 | 388 | 0.854% | 95.554% | – | – | – | – | Cc1c(C(=O)Nc2cc(-c3cccnc3)ccn2)cc(C2CC2)n1C
16 | 108 | 15 | 82% | 110% | 41.7 | 33 | 52% | 101% | – | – | – | – | COc1cc(Cc2c(-c3ccc(F)cc3)noc2C)nc(N2CCNCC2)n1

Row | half-life [1] [min] | microsomal CLint [1] [µL/min/mg] | Remaining [1] | Remaining (without cofactor) [1] | half-life [2] [min] | microsomal CLint [2] [µL/min/mg] | Remaining [2] | Remaining (without cofactor) [2] | CLint [1] [µL/min/mg] | T1/2 [1] | CLint [2] [µL/min/mg] | T1/2 [2] [min] | SMILES
17 | 430 | 3.88 | 94.901% | 89.996% | 507 | 2.73 | 103.125% | 96.808% | – | – | – | – | NCc1cccc(CNC(=O)[C@@H](NC(=O)OCc2ccccc2)c2ccc(OCc3ccccc3)cc2)c1
18 | > 173 | < 10 | 85.714% and 76.558% | 101.075% and 93.161% | 5.74 | 291 | 0.854% and 0.916% | 97.455% and 90.578% | 16.74 | 99.773 min | 288.453 | 5.79 | N#Cc1cc2c(cc1NC(=O)c1cc(F)cc3[nH]ncc13)CNC2
19 | > 173 | < 10 | 97.296% | 93.037% | – | – | – | – | – | – | – | – | C=CC[C@H]1NCc2cc(NC(=O)c3cc(F)cc4[nH]ncc34)ccc21
20 | 15.8 | 106 | 18% | 94% | 14.8 | 94 | 16% | 99% | – | – | – | – | CNC(=O)c1cc(Cl)ccc1NS(=O)(=O)c1ccc(Oc2ccccc2Cl)cc1
21 | > 173 | < 10 | 104.365% | 104.155% | 19.2 | 86.8 | 23.262% | 95.024% | – | – | – | – | O=C(Nc1cc2c(cc1C1CC1)CNC2)c1cc(F)cc2[nH]ncc12
22 | > 173 | < 10 | 97.872% | 85.479% | 134 | 12.5 | 78.028% | 113.254% | – | – | – | – | Cn1c(=O)[nH]c2c(C(=O)Nc3ccc4c(c3)CNC4)cc(Br)cc21
23 | > 173 | < 10 | 89.541% | 103.012% | – | – | – | – | – | – | – | – | OCC#C[C@H](Nc1ccc2c(c1)CNC2)c1cc(Cl)cc2[nH]ncc12
24 | > 173 | < 10 | 95.811% | 102.779% | 44.7 | 37.4 | 53.571% | 103.66% | – | – | – | – | O=C(Nc1ccc2c(c1)CNC2)c1cc(F)cc2c1CCC2
25 | – | – | – | – | > 173 | < 10 | 102.985% | 100.305% | – | – | – | – | O=C1Cc2cc(C(=O)Nc3ccc4c(c3)CNC4)ccc2N1
26 | 23.4 | 71.3 | 32.8% | 112.27% | 30.4 | 45.6 | 39.045% | 100.041% | – | – | – | – | CNC(=O)c1cc(Cl)c(F)cc1NS(=O)(=O)c1ccc(Oc2ccccc2Cl)cc1
27 | – | – | 0% | 109.308% | – | – | – | – | – | Half-life could not be determined | – | – | NCc1cc(Cl)cc(C(=O)Nc2ccc3c(c2)CNC3)c1
28 | 146 | 11.4 | 83.663% | 98.81% | 5.58 | 299 | 0.737% | 95.151% | – | – | – | – | O=C(Nc1cc2c(cc1Br)CNC2)c1cc(F)cc2[nH]ncc12
29 | 10.8 | 155 | 8.181% | 110.535% | 109 | 13 | 79.49% | 100.358% | – | – | – | – | O=C(O)c1cc(Cl)ccc1NS(=O)(=O)c1ccc(Oc2ccccc2Cl)cc1
30 | > 173 | < 10 | 95.463% | 101.856% | – | – | – | – | – | – | – | – | CNC(=O)[C@H](Nc1cc(CN)cc(-c2nn[nH]n2)c1)c1cc(Cl)cc(C2CC2)c1
31 | > 173 | < 10 | 90.19% | 105.644% | 11 | 152 | 8.587% | 96.063% | – | – | – | – | O=C(Nc1cc2c(c(C3=CCOCC3)c1)CNC2)c1cc(F)cc2[nH]ncc12

Row | SMILES | half-life [1] [min] | microsomal CLint [1] [µL/min/mg] | Remaining [1] | Remaining (without cofactor) [1] | half-life [2] [min] | microsomal CLint [2] [µL/min/mg] | Remaining [2] | Remaining (without cofactor) [2] | CLint [1] [µL/min/mg] | T1/2 [1] | CLint [2] [µL/min/mg] | T1/2 [2] [min]
32 | O=C(NCC(F)F)[C@H](Nc1ccc2c(c1)CNC2)c1cc(Cl)cc(C2CC2)c1 | > 173 | < 10 | 87.774% and 93.401% and 87.317% and 91.082% | 101.867% and 96.07% and 104.631% and 112.978% | > 173 | < 10 | 90.622% and 93.184% | 90.232% and 99.155% | – | – | – | –
